# Experimental data reported in patent US4479951A, “1.4;3.6-Dianhydrohexitol nitrates substituted by purine bases, processes for their preparation and pharmaceutical compositions” (Dr. Willmar Schwabe GmbH & Co., priority 1980, dated 1984).
# Columns and labels:
# [1] = tested on: isolated rat aorta preparations; assay: spasmolytic effectiveness, noradrenaline-induced contractions; details: read-out: ED50 noradrenaline spasm
# [2] = acute toxicity, p.o. and i.p. (footnote of Table VII); assay type: in vivo; details: mouse, in vivo, ip
# mouse = assay: as above; assay type: in vivo; details: p.o.
smiles,measurement,setting,value
"Nc1ncnc2c1ncn2[C@H]1CO[C@H]2[C@@H]1OC[C@@H]2O[N+](=O)[O-] [1c/2c, 5-(9-Adenyl)-5-desoxy-1.4;3.6-dianhydro-L-iditol 2-nitrate]",IC50,[1],0.135 µM
same,LD50,[2],540 mg/kg
same,LD70 p.o. mouse,mouse,1600 mg/kg
